Reference: ChEMBL document CHEMBL1131370, “Identification of potent inhibitors of Plasmodium falciparum plasmepsin II from an encoded statine combinatorial library” (Bioorg Med Chem Lett, 1998)

Assays:
Cathepsin D = Cathepsin D (Homo sapiens, UniProt P07339); test: Inhibitory activity against cathepsin D
Plasmepsin II [1] = molecular target: T1, Plasmepsin II (Plasmodium falciparum, UniProt P46925); test: In vitro inhibition of plasmepsin-2 from Plasmodium falciparum.
Plasmodium falciparum = test: Inhibitory activity against Plasmodium falciparum; format: functional, organism-based
Plasmepsin II [2] = molecular target: T1, Plasmepsin II; test: Inhibitory activity against plasmepsin-2 from Plasmodium falciparum

Chain of Cathepsin D (P07339 65-162 limits assumed): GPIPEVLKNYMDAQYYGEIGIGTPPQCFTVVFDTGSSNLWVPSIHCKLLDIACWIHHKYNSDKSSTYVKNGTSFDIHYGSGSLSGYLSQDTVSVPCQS
Chain of Cathepsin D (P07339 169-412 limits assumed): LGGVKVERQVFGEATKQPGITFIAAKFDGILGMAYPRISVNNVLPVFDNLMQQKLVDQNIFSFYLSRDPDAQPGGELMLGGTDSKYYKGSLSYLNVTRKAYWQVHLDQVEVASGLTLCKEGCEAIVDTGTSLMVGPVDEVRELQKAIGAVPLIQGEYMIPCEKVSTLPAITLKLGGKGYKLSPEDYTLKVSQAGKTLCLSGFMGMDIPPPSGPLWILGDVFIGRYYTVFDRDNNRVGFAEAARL
T1 sequence (P46925 whole entry): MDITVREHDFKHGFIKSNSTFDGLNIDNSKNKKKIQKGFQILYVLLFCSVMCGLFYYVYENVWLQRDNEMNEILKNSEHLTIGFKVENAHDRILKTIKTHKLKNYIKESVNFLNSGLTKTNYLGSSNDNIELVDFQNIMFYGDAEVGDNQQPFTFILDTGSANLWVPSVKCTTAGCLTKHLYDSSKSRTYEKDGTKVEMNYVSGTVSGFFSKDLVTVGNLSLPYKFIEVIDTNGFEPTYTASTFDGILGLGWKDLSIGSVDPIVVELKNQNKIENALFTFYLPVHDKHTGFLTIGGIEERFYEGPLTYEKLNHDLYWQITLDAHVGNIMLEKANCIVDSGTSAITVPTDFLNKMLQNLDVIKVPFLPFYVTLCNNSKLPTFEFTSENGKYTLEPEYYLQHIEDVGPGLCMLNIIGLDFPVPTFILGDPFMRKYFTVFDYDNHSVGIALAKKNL

| SMILES | IC50 (Cathepsin D) [nM] | Ki (Plasmepsin II [1]) [nM] | IC50 (Plasmodium falciparum) [µM] | Ki (Cathepsin D) [nM] | Ki (Plasmepsin II [2]) [nM] |
| --- | --- | --- | --- | --- | --- |
| CCCCNC(=O)CC(O)C(Cc1ccccc1)NC(=O)[C@@H](NC(=O)CN1CCC(C(N)=O)(c2ccccc2)CC1)[C@@H](C)CC (some centres not stated) | 5500 | 410 | ~20 | – | – |
| CCCCNC(=O)CC(O)C(CC(C)C)NC(=O)[C@@H](NC(=O)Cc1ccc2ccccc2c1)[C@@H](C)CC (some centres not stated) | – | – | – | 320 | 50 |
| CCCCNC(=O)CC(O)C(Cc1ccccc1)NC(=O)[C@@H](NC(=O)COc1ccc2ccccc2c1)c1ccccc1 (some centres not stated) | – | 560 | – | 200 | – |
| CCCCNC(=O)CC(O)C(Cc1ccccc1)NC(=O)[C@@H](NC(=O)Cc1ccc2ccccc2c1)[C@@H](C)CC (some centres not stated) | – | 90 | – | 50 | – |
| CCCCNC(=O)CC(O)C(Cc1ccccc1)NC(=O)[C@@H](NC(=O)c1ccc(OC)cc1OC)C(C)C (some centres not stated) | – | 500 | – | 1600 | – |
| CCCCNC(=O)CC(O)C(Cc1ccccc1)NC(=O)[C@H](CCC(N)=O)NC(=O)COc1ccc2ccccc2c1 (some centres not stated) | – | > 30000 | – | 200 | – |
| CCCCNC(=O)CC(O)C(Cc1ccccc1)NC(=O)[C@@H](NC(=O)c1ccc(OC)cc1OC)[C@@H](C)CC (some centres not stated) | – | 220 | – | 2400 | – |
| CCCCNC(=O)CC(O)C(Cc1ccccc1)NC(=O)[C@@H](NC(=O)c1ccc(CN2CCCC2)cc1)[C@@H](C)CC (some centres not stated) | 1200 | 220 | ~10 | – | – |
| CCCCNC(=O)CC(O)C(Cc1ccccc1)NC(=O)[C@@H](NC(=O)COc1ccc2ccccc2c1)[C@@H](C)CC (some centres not stated) | 500 | 110 | ~10 | – | – |
| CCCCNC(=O)CC(O)C(CC(C)C)NC(=O)[C@H](Cc1ccccc1)NC(=O)COc1ccc2ccccc2c1 (some centres not stated) | – | 12000 | – | 1300 | – |
| CCCCNC(=O)CC(O)C(Cc1ccccc1)NC(=O)[C@H](NC(=O)COc1ccc2ccccc2c1)c1ccccc1 (some centres not stated) | – | 15000 | – | 700 | – |
| CC[C@H](C)[C@H](NC(=O)CN1CCC(C(N)=O)(c2ccccc2)CC1)C(=O)NC(Cc1ccccc1)C(O)CC(=O)NCCCc1ccccc1 (some centres not stated) | – | 600 | – | 3900 | – |
| CCCCNC(=O)CC(O)C(CC(C)C)NC(=O)[C@H](CC(C)C)NC(=O)COc1ccc2ccccc2c1 (some centres not stated) | – | 5600 | – | 920 | – |
| CCCCNC(=O)CC(O)C(CC(C)C)NC(=O)[C@@H](NC(=O)COc1ccc2ccccc2c1)c1ccccc1 (some centres not stated) | – | 5800 | – | 110 | – |
| CCC(C)C(NC(=O)c1ccc(CNC)cc1)C(=O)NC(CC(C)C)C(O)CC(=O)NCCCc1ccccc1 (configuration not stated) | – | 440 | – | 1300 | – |
| CCCCNC(=O)CC(O)C(Cc1ccccc1)NC(=O)[C@@H](NC(=O)c1ccc(OC)cc1OC)c1ccccc1 (stereo in doubt; form 1) | – | 590 | – | 2100 | – |
| CCCCNC(=O)CC(O)C(Cc1ccccc1)NC(=O)[C@@H](NC(=O)c1ccc(OC)cc1OC)c1ccccc1 (stereo in doubt; form 2) | – | > 30000 | – | 6200 | – |
